{"source": "patent US12376586B2", "about": "“Microcapsules comprising cinmethyln in the core and a polyurea derived from diphenylmethane diisocyanate or an oligomer thereof” (BASF Agro B.V., priority 2017, dated 2025)", "origin": "cited, not measured here", "key": {"[1]": {"conditions": "at 20° C."}, "[2]": {"conditions": "at 20° C.", "remark": "listed apart in the source"}}}
{"smiles": "Cc1ccccc1CO[C@@H]1C[C@]2(C(C)C)CC[C@@]1(C)O2", "note": "(racemic) [Cinmethylin, (±)-2-exo-(2-methylbenzyloxy)-1-methyl-4-isopropyl-7-oxabicyclo[2.2.1]heptane]", "values": [{"measurement": "vapor pressure", "setting": "[1]", "result": "8.1·10^−3 Pa"}, {"measurement": "solubility in water", "setting": "[2]", "result": "0,063 g·L^−1"}]}
